In patent publication US12084445B2, “Broad-spectrum carbapenems” (VenatoRx Pharmaceuticals, Inc., priority 2018, dated 2024) one finds MIC data, which are given here for 10 compounds.

Common to all, as to format: cell-based
Assay [1] relates to P. aeruginosa ATCC 27853 (wild-type/QC strain). Briefly: broth microdilution MIC assay, P. aeruginosa ATCC 27853. The conditions noted are these: Pseudomonas aeruginosa. How it is done: (§1) To determine the ability of test compounds to potentiate the inhibition of the growth of bacterial strains, classic cell-based broth microdilution MIC assays were employed. MIC assays are performed according to CLSI methods except where otherwise noted (CLSI, 2011 and CLSI, 2009). The reference strains S. aureus ATCC 29213 (methicillin sensitive), S. aureus ATCC 33591 (methicillin-resistant), E. coli ATCC 25922 (wild-type/QC strain), P. aeruginosa ATCC 27853 (wild-type/QC strain), and the clinical isolate P. aeruginosa PA 8 were used to determine the ability of the exemplary carbapenem compounds to inhibit bacterial growth. An expanded panel of methicillin resistance S. aureus (MRSA) and Pseudomonas was also used to determine the ability of exemplary carbapenem compounds to inhibit bacterial growth across a broader representation of those species. To determine activity in MRSA and in addition to S. aureus ATCC 33591, S. aureus USA 300, USA 400 and USA 600, some of the most common clones found to cause human infection, were also used. To further gauge the impact on the carbapenem compounds due to various resistance mechanisms in Pseudomonas, the following strains were included: P. aeruginosa 35151 (hyper-permeable strain), P. aeruginosa AmexAB-OprM (an efflux pump knockout), and P. aeruginosa PA 3 (a clinical isolate of reduced carbapenem susceptibility). Briefly, cryo-preserved bacterial cultures of clinical strains are streaked for isolation on appropriate agar medium, in this case Mueller Hinton II agar. Following incubation to allow formation of colonies, these plates are sealed with parafilm and stored refrigerated for up to two weeks. For preparation of assay inocula and to ensure low variability, at least 5 colonies are picked from the agar plates with an inoculating loop and aseptically transferred to a culture tube containing 3 mL of Mueller-Hinton Broth (supplemented with divalent cations to required levels based on Manufacturers' specification). The broth culture is grown for 3-5 hours at 37° C. with shaking at 200 rpm. Meanwhile, 2-fold serial dilutions of test compounds are conducted in a 96 well plate with a final volume of 75 μL per well at 2-fold the final desired concentration. After the dilution plates are set up the growing cultures are then diluted in a cuvette containing MH II broth and the optical density is measured at 600 nm. Inocula are diluted such that 75 μL of this culture in Mueller-Hinton Broth results in a starting bacterial concentration of 5×10^5 CFU/mL when added to the dilution plates. The plates are incubated 16-20 hours at 37° C. The MIC is read visually as the lowest concentration well with no bacterial growth.
(§2) Representative results are shown in Tables 3, 4, and 5 where A represents an MIC>32 μg/mL, B represents an MIC between 8 and 32 μg/mL inclusive, C represents an MIC between 1 and 4 μg/mL inclusive, and D represents an MIC of <1 μg/mL. NT=Not Tested.

The test system of assay [2] is E. coli ATCC 25922 (wild-type/QC strain). Briefly: broth microdilution MIC assay, E. coli ATCC 25922. The conditions noted are these: Escherichia coli. As for the experimental part:
as §1, §2

Assay [3] concerns clinical isolate P. aeruginosa PA 8. Briefly: broth microdilution MIC assay, P. aeruginosa PA 8. The conditions noted are these: Pseudomonas aeruginosa; Table 3; P. aeruginosa PA8. As for the experimental part: as §1, §2
In assay [4] the test system is S. aureus ATCC 33591 (methicillin-resistant). Briefly: broth microdilution MIC assay, S. aureus ATCC 33591. The conditions noted are these: Staphylococcus aureus. As for the experimental part: as §1, §2
Assay [5] deals with P. aeruginosa 35151 (hyper-permeable strain). In words: broth microdilution MIC assay, P. aeruginosa 35151. The conditions noted are these: Pseudomonas aeruginosa, read-out: P. aeruginosa 35151 MIC. As for the experimental part: as §1, §2
For assay [6], the system named is P. aeruginosa ΔmexAB-OprM (an efflux pump knockout). Briefly: broth microdilution MIC assay, P. aeruginosa ΔmexAB-OprM. The conditions noted are these: Pseudomonas aeruginosa, 20 h, read-out: P. aeruginosa ΔmexAB-OprM MIC. As for the experimental part: as §1, §2
The next assay deals with S. aureus USA600. Briefly: broth microdilution MIC assay, S. aureus USA 600. The conditions noted are these: Staphylococcus aureus. How it is done: as §1, §2
The test system of a further assay is S. aureus USA 300. In words: broth microdilution MIC assay, S. aureus USA 300. The conditions noted are these: Staphylococcus aureus. As for the experimental part:
as §1, §2

The mark [7] stands for this setting: ATCC27853, Table 3, P. aeruginosa 27853, read-out: P. aeruginosa 27853 MIC.
The mark [8] stands for this setting: ATCC25922, Table 3, E. coli 25922, read-out: E. coli 25922 MIC.
Where [9] appears, read: ATCC 33591 / MRSA, Table 3, S. aureus 33591 (MRSA), read-out: S. aureus 33591 (MRSA) MIC.
[10] abbreviates: ATCC27853, Table 5, P. aeruginosa 27853, read-out: P. aeruginosa 27853 MIC.
[11] abbreviates: ATCC25922, Table 4, E. coli 25922, read-out: E. coli 25922 MIC.
Where [12] appears, read: Table 4, S. aureus USA600, read-out: S. aureus USA600 MIC.
[13] abbreviates: ATCC33591, Table 4, S. aureus 33591, read-out: S. aureus 33591 MIC.
The mark [14] stands for this setting: Table 4, S. aureus USA300, read-out: S. aureus USA300 MIC.

Where two headings read alike, the source gives them in different places.

In the case of `C[C@@H](O)[C@H]1C(=O)N2C(C(=O)O)=C(S[C@@H]3CCN(CC4CNCCN4S(C)(=O)=O)C3)[C@H](C)[C@H]12` (stereo partly drawn) [Example 32, (4R,5S,6S)-6-((R)-1-hydroxyethyl)-4-methyl-3-(((3R)-1-((1-(methylsulfonyl)piperazin-2-yl)methyl)pyrrolidin-3-yl)thio)-7-oxo-1-azabicyclo[3.2.0]hept-2-ene-2-carboxylic acid], the MIC in assay [1] (setting [7]), in assay [2] (setting [8]), in assay [3] and in assay [4] (setting [9]) was 8 to 32 µg/mL each time.
For the compound `C[C@@H](O)[C@H]1C(=O)N2C(C(=O)[O-])=C(S[C@@H]3CC[N+](C)(CC4CCNCC4)C3)[C@H](C)[C@H]12` (stereo partly drawn) [Example 33, (4R,5S,6S)-6-((R)-1-hydroxyethyl)-4-methyl-3-(((3R)-1-methyl-1-(piperidin-4-ylmethyl)pyrrolidin-1-ium-3-yl)thio)-7-oxo-1-azabicyclo[3.2.0]hept-2-ene-2-carboxylate], the MIC in assay [1] (setting [7]) was 1 to 4 µg/mL; in assay [2] (setting [8]), below 1 µg/mL; in assay [3], 1 to 4 µg/mL; in assay [4] (setting [9]), 8 to 32 µg/mL.
For the compound `C[C@@H](O)[C@H]1C(=O)N2C(C(=O)O)=C(S[C@@H]3CCN(Cc4ccc(C(N)CN)cc4)C3)[C@H](C)[C@H]12` (stereo partly drawn) [Example 34, (4R,5S,6S)-3-(((3R)-1-(4-(1,2-diaminoethyl)benzyl)pyrrolidin-3-yl)thio)-6-((R)-1-hydroxyethyl)-4-methyl-7-oxo-1-azabicyclo[3.2.0]hept-2-ene-2-carboxylic acid], the MIC in assay [1] (setting [7]) is 8 to 32 µg/mL; in assay [2] (setting [8]), below 1 µg/mL; in assay [3], 8 to 32 µg/mL; in assay [4] (setting [9]), 1 to 4 µg/mL.
`C[C@@H](O)[C@H]1C(=O)N2C(C(=O)O)=C(S[C@@H]3CCN(CC4CCN(C)CC4)C3)[C@H](C)[C@H]12` [Example 39, (4R,5S,6S)-6-((R)-1-hydroxyethyl)-4-methyl-3-(((R)-1-((1-methylpiperidin-4-yl)methyl)pyrrolidin-3-yl)thio)-7-oxo-1-azabicyclo[3.2.0]hept-2-ene-2-carboxylic acid]: the MIC is below 1 µg/mL in assay [5]; 1 to 4 µg/mL in assay [1] (setting [10]); below 1 µg/mL in assay [2] (setting [11]); 1 to 4 µg/mL in assay [6]; 1 to 4 µg/mL in the assay on S. aureus USA600 (setting [12]); 1 to 4 µg/mL in assay [4] (setting [13]). In addition, the MIC with S. aureus USA 300 (setting [14]) was in the range of 1 to 4 µg/mL.
`C[C@@H](O)[C@H]1C(=O)N2C(C(=O)O)=C(S[C@@H]3CCN(CC4CCN(CCO)CC4)C3)[C@H](C)[C@H]12` [Example 40, (4R,5S,6S)-6-((R)-1-hydroxyethyl)-3-(((R)-1-((1-(2-hydroxyethyl)piperidin-4-yl)methyl)pyrrolidin-3-yl)thio)-4-methyl-7-oxo-1-azabicyclo[3.2.0]hept-2-ene-2-carboxylic acid]: the MIC in assay [5] is below 1 µg/mL; in assay [1] (setting [10]), 1 to 4 µg/mL; in assay [2] (setting [11]), below 1 µg/mL; in assay [6] it was 1 to 4 µg/mL; with S. aureus USA600 (setting [12]), 1 to 4 µg/mL; in assay [4] (setting [13]) it was 8 to 32 µg/mL. The MIC in the assay with S. aureus USA 300 (setting [14]) lay within 1 to 4 µg/mL.
As to `C[C@@H](O)[C@H]1C(=O)N2C(C(=O)O)=C(S[C@@H]3CCN(CC4CCN(CC(N)=O)CC4)C3)[C@H](C)[C@H]12` [Example 41, (4R,5S,6S)-3-(((R)-1-((1-(2-amino-2-oxoethyl)piperidin-4-yl)methyl)pyrrolidin-3-yl)thio)-6-((R)-1-hydroxyethyl)-4-methyl-7-oxo-1-azabicyclo[3.2.0]hept-2-ene-2-carboxylic acid], the MIC in assay [5] was below 1 µg/mL; in assay [1] (setting [10]) it was 8 to 32 µg/mL; in assay [2] (setting [11]), below 1 µg/mL; in assay [6], 1 to 4 µg/mL; with S. aureus USA600 (setting [12]) it was 1 to 4 µg/mL; in assay [4] (setting [13]), 8 to 32 µg/mL. The MIC in the assay on S. aureus USA 300 (setting [14]) was 1 to 4 µg/mL.
On to `C[C@@H](O)[C@H]1C(=O)N2C(C(=O)O)=C(S[C@@H]3CCN(CC4CCNCC4F)C3)[C@H](C)[C@H]12` (stereo partly drawn) [Example 45, (4R,5S,6S)-3-(((3R)-1-((3-fluoropiperidin-4-yl)methyl)pyrrolidin-3-yl)thio)-6-((R)-1-hydroxyethyl)-4-methyl-7-oxo-1-azabicyclo[3.2.0]hept-2-ene-2-carboxylic acid], for which the MIC in assay [5] was below 1 µg/mL; in assay [1] (ATCC27853, read-out: P. aeruginosa 27853 MIC), 1 to 4 µg/mL; in assay [2] (ATCC25922, read-out: E. coli 25922 MIC), below 1 µg/mL; in assay [6], 1 to 4 µg/mL; with S. aureus USA600 (USA600, read-out: S. aureus USA600 MIC), 1 to 4 µg/mL; in assay [4] (ATCC33591, read-out: S. aureus 33591 MIC), 1 to 4 µg/mL. Further, the MIC in the assay with S. aureus USA 300 (USA300, read-out: S. aureus USA300 MIC) lay in the range of 1 to 4 µg/mL.
For the compound `C[C@@H](O)[C@H]1C(=O)N2C(C(=O)O)=C(S[C@@H]3CCN(CC4CCNCC4(F)F)C3)[C@H](C)[C@H]12` (stereo partly drawn) [Example 46, (4R,5S,6S)-3-(((3R)-1-((3,3-difluoropiperidin-4-yl)methyl)pyrrolidin-3-yl)thio)-6-((R)-1-hydroxyethyl)-4-methyl-7-oxo-1-azabicyclo[3.2.0]hept-2-ene-2-carboxylic acid], the MIC is below 1 µg/mL in assay [5]; 8 to 32 µg/mL in assay [1] (setting [10]); below 1 µg/mL in assay [2] (setting [11]); 1 to 4 µg/mL in assay [6]; 1 to 4 µg/mL in the assay with S. aureus USA600 (setting [12]); 8 to 32 µg/mL in assay [4] (setting [13]). Besides, in the assay on S. aureus USA 300 (setting [14]), the MIC was 1 to 4 µg/mL.
Regarding `C[C@@H](O)[C@H]1C(=O)N2C(C(=O)O)=C(S[C@@H]3CCN(CC4CCN(C(=O)CN)CC4)C3)[C@H](C)[C@H]12` [Example 47, (4R,5S,6S)-3-(((R)-1-((1-glycylpiperidin-4-yl)methyl)pyrrolidin-3-yl)thio)-6-((R)-1-hydroxyethyl)-4-methyl-7-oxo-1-azabicyclo[3.2.0]hept-2-ene-2-carboxylic acid], the MIC in assay [5] is below 1 µg/mL; in assay [1] (setting [10]), 1 to 4 µg/mL; in assay [2] (setting [11]), below 1 µg/mL; in assay [6] it was 1 to 4 µg/mL; in the assay with S. aureus USA600 (setting [12]), 1 to 4 µg/mL; in assay [4] (setting [13]) it was 8 to 32 µg/mL. Further, the MIC in the assay with S. aureus USA 300 (setting [14]) was 1 to 4 µg/mL.
In the case of `CNCC(=O)N1CCC(CN2CC[C@@H](SC3=C(C(=O)O)N4C(=O)[C@H]([C@@H](C)O)[C@H]4[C@H]3C)C2)CC1` [Example 48, (4R,5S,6S)-6-((R)-1-hydroxyethyl)-4-methyl-3-(((R)-1-((1-(methylglycyl)piperidin-4-yl)methyl)pyrrolidin-3-yl)thio)-7-oxo-1-azabicyclo[3.2.0]hept-2-ene-2-carboxylic acid], the minimum inhibitory concentration (MIC) is below 1 µg/mL in assay [5]; 1 to 4 µg/mL in assay [1] (setting [10]); below 1 µg/mL in assay [2] (setting [11]); 1 to 4 µg/mL in assay [6]; 1 to 4 µg/mL in the assay on S. aureus USA600 (setting [12]); 8 to 32 µg/mL in assay [4] (setting [13]). Also, the MIC in the assay on S. aureus USA 300 (setting [14]) was in the range of 1 to 4 µg/mL.
